28 compounds from patent US9580409B2, “Modulators of opioid receptors and methods of use thereof” (priority 2011, dated 2017) can be followed below.

In this assay the target is mu-opioid receptor (Homo sapiens, UniProt P35372). The experiment in a line: biochemical. The conditions noted are these: […]; class symbol combines EC50 and efficacy; read-out: GTP Activity.
Sequence of mu-opioid receptor (P35372 whole entry, species assumed): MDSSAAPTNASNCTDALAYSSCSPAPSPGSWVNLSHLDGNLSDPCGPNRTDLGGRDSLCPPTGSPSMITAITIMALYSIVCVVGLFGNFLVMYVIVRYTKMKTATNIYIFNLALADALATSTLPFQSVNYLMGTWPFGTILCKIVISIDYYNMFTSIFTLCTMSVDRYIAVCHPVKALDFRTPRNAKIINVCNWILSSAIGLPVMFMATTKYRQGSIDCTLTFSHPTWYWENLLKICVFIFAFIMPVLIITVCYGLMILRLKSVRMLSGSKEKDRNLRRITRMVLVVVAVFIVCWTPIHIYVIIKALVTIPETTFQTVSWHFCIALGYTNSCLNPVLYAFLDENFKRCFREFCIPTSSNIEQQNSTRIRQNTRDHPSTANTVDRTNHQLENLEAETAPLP

In the case of `CNC1=C(c2nc3ccccc3[nH]2)C(=O)C(C)(CO)N1c1cc(OC)cc(OC)c1` (stereo not shown) [compound 201], the EC50 is below 100 nM. Consider `COc1cc(OC)cc(N2C(N)=C(c3nc4ccccc4[nH]3)C(=O)C2CCCCN)c1` (stereo not shown) [compound 204], for which the EC50 was 100 to 1000 nM. With `COc1cc(OC)cc(N2C(N)=C(c3nc4ccccc4[nH]3)C(=O)[C@]23C[C@@H](O)C3)c1` [compound 206], the EC50 fell in the range of 100 to 1000 nM.

With `COc1cc(OC)cc(N2C(N)=C(c3nc4ccccc4[nH]3)C(=O)C23CC(=O)C3)c1` [compound 207], the EC50 lay in the range of 100 to 1000 nM.

Regarding `COc1cc(OC)cc(N2C(N)=C(c3nc4ccccc4[nH]3)C(=O)C2(C)c2ccc(O)cc2)c1` (stereo not shown) [compound 209], the EC50 was in the range of 1000 to 10000 nM. On to `COc1cc(OC)cc(N2C(N)=C(c3nc4ccccc4[nH]3)C(=O)C2(C)c2cccc(O)c2)c1` (stereo not shown) [compound 210], for which the EC50 was 1000 to 10000 nM. In the case of `CNC1=C(c2nc3ccccc3[nH]2)C(=O)[C@@](C)(CO)N1c1cc(OC)cc(OC)c1` [compound 211], the EC50 fell in the range of 100 to 1000 nM.

With `CNC1=C(c2nc3ccccc3[nH]2)C(=O)[C@](C)(CO)N1c1cc(OC)cc(OC)c1` [compound 212], the EC50 is below 100 nM.

For `COc1cc(OC)cc(N2C(N)=C(c3nc4ccccc4[nH]3)C(=O)C2(C)CCO)c1` (stereo not shown) [compound 216], the EC50 lay within 100 to 1000 nM.

On to `CNC1=C(c2nc3ccccc3[nH]2)C(=O)C(C)(CCO)N1c1cc(OC)cc(OC)c1` (stereo not shown) [compound 217], for which the EC50 is below 100 nM. Consider `COCCC1(C)C(=O)C(c2nc3ccccc3[nH]2)=C(N)N1c1cc(OC)cc(OC)c1` (stereo not shown) [compound 219], for which the EC50 was in the range of 100 to 1000 nM.

With `CNC1=C(c2nc3ccccc3[nH]2)C(=O)C(C)(CCOC)N1c1cc(OC)cc(OC)c1` (stereo not shown) [compound 220], the EC50 was below 100 nM. Consider `COc1cc(OC)cc(N2C(N)=C(c3nc4ccccc4[nH]3)C(=O)C2CCCO)c1` (stereo not shown) [compound 221], for which the EC50 lay within 100 to 1000 nM. In the case of `COc1cc(OC)cc(N2C(N)=C(c3nc4ccccc4[nH]3)C(=O)C2CCN(C)C)c1` (stereo not shown) [compound 222], the EC50 was 1000 to 10000 nM.

As for `COc1cc(OC)cc(N2C(N)=C(c3nc4ccccc4[nH]3)C(=O)C2CCCCO)c1` (stereo not shown) [compound 223], the EC50 fell in the range of 100 to 1000 nM. To `COc1cc(OC)cc(N2C(N)=C(c3nc4ccccc4[nH]3)C(=O)C23CCOCC3)c1` [compound 224] belongs 100 to 1000 nM; to `CNC1=C(c2nc3ccccc3[nH]2)C(=O)C2(CCOCC2)N1c1cc(OC)cc(OC)c1` [compound 226], 100 to 1000 nM. With `COc1cc(OC)cc(N2C(N)=C(c3nc4ccccc4[nH]3)C(=O)C2CCc2ccccc2)c1` (stereo not shown) [compound 229], the EC50 was 1000 to 10000 nM. In the case of `COc1cc(OC)cc(N2C(N)=C(c3nc4ccccc4[nH]3)C(=O)C2CCOc2ccccc2)c1` (stereo not shown) [compound 231], the EC50 fell in the range of 1000 to 10000 nM. Take `COc1cc(OC)cc(N2C(N)=C(c3nc4ccccc4[nH]3)C(=O)C2CCNc2ccccc2)c1` (stereo not shown) [compound 232]: the EC50 was 100 to 1000 nM. For `COc1cc(OC)cc(N2C(N)=C(c3nc4ccccc4[nH]3)C(=O)C2CCN2CCOCC2)c1` (stereo not shown) [compound 234], the EC50 is 100 to 1000 nM. Take `COc1cc(OC)cc(N2C(N)=C(c3nc4ccccc4[nH]3)C(=O)C2CCN2CCCC2)c1` (stereo not shown) [compound 237]: the EC50 lay in the range of 1000 to 10000 nM.

On to `COc1cc(OC)cc(N2C(N)=C(c3nc4ccccc4[nH]3)C(=O)C2CCN)c1` (stereo not shown) [compound 238], for which the EC50 lay in the range of 1000 to 10000 nM.

As to `COc1cc(OC)cc(N2C(N)=C(c3nc4ccccc4[nH]3)C(=O)C2CCn2ccnc2)c1` (stereo not shown) [compound 239], the EC50 fell in the range of 100 to 1000 nM. On to `COc1cc(OC)cc(N2C(N)=C(c3nc4ccccc4[nH]3)C(=O)[C@H]2CCO)c1` [compound 241], for which the EC50 was in the range of 100 to 1000 nM. With `COc1cc(OC)cc(N2C(N)=C(c3nc4ccccc4[nH]3)C(=O)C2CC(=O)O)c1` (stereo not shown) [compound 244], the EC50 lay within 1000 to 10000 nM.

Turning to `CNC(=O)CC1C(=O)C(c2nc3ccccc3[nH]2)=C(N)N1c1cc(OC)cc(OC)c1` (stereo not shown) [compound 246], the EC50 lay in the range of 1000 to 10000 nM. `COc1cc(OC)cc(N2C(N)=C(c3nc4ccccc4[nH]3)C(=O)C23CN(C(C)=O)C3)c1` [compound 248]: the EC50 lay within 100 to 1000 nM.
